Assay results: the kinase profiling compilation of Christmann-Franck et al. (2016)

Assays:
Test in all cases: KINOMEscan competition binding
Conditions in all cases: compound 1.0 µM
EPHA4 (human) = EPHA4 (human) (UniProt P54764)
TIE1 (human) = TIE1 (human) (UniProt P35590)
[1] = test system: KIT (human), P10721 [V559D]
TNIK (human) = TNIK (human) (UniProt Q9UKE5)
CDK16 (human) = CDK16 (human) (UniProt Q00536)
MAP3K9 (human) = MAP3K9 (human) (UniProt P80192)
CaMK1 (human) = CaMK1 (human) (UniProt Q14012)
MST4 (human) = MST4 (human) (UniProt Q9P289)
NEK1 (human) = NEK1 (human) (UniProt Q96PY6)
MAPK12 (human) = MAPK12 (human) (UniProt P53778)
PIK3C2B (human) = PIK3C2B (human) (UniProt O00750)
Chain of PIK3C2B (human) (O00750 whole entry, looked up): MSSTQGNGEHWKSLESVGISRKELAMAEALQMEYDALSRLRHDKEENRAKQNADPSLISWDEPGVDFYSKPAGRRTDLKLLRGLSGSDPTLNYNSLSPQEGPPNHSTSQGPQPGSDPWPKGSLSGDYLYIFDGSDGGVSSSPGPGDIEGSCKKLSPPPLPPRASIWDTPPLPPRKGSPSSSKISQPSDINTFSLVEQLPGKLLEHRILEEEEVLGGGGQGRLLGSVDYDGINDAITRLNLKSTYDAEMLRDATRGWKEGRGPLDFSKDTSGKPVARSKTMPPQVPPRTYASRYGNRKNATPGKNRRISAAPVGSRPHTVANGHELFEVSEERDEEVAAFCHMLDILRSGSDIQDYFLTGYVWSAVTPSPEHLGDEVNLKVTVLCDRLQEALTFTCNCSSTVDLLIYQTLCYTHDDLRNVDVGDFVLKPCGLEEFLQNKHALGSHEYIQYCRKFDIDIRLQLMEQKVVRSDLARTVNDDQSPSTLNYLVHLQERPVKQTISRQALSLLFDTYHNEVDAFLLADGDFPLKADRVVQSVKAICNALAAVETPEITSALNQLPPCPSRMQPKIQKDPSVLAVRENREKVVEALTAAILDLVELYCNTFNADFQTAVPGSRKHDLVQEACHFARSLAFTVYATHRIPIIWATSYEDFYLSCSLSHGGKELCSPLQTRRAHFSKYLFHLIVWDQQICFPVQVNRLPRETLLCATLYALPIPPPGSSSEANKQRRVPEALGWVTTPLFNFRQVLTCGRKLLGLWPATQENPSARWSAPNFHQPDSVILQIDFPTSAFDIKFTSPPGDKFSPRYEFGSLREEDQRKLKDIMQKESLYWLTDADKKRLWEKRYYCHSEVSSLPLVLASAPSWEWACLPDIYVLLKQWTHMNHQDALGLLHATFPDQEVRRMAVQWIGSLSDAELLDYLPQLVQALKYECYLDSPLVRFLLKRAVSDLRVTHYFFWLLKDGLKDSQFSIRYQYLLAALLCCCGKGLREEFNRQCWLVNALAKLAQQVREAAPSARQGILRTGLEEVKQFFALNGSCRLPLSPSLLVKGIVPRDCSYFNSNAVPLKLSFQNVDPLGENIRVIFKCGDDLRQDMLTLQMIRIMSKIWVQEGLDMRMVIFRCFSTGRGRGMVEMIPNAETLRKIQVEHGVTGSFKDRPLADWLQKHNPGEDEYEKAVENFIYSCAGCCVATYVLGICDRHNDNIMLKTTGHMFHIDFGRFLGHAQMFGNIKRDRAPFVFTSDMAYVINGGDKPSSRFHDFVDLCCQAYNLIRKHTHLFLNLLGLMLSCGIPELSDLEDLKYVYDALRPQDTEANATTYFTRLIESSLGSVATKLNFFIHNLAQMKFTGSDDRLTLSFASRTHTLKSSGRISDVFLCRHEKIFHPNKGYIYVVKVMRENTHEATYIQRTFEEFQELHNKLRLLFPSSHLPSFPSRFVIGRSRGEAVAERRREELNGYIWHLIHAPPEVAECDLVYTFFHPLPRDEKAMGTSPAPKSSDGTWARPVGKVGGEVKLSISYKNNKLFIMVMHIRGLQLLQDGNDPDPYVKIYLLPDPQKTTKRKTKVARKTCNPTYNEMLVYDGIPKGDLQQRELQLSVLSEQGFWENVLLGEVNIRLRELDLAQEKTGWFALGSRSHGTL

BMPR1A (human) = BMPR1A (human) (UniProt P36894)
[2] = target: JAK1 JH1 catalytic (human) (UniProt P23458)
EPHA3 (human) = EPHA3 (human) (UniProt P29320)
NEK6 (human) = NEK6 (human) (UniProt Q9HC98)
MAP3K1 (human) = MAP3K1 (human) (UniProt Q13233)
TAOK1 (human) = TAOK1 (human) (UniProt Q7L7X3)
CSNK1A1L (human) = CSNK1A1L (human) (UniProt Q8N752)
[3] = test system: FLT3 (human), P36888 [K663Q]
FLT4 (human) = FLT4 (human) (UniProt P35916)
CDK13 (human) = CDK13 (human) (UniProt Q14004)
ERN1 (human) = ERN1 (human) (UniProt O75460)
PAK2 (human) = PAK2 (human) (UniProt Q13177)
BMX (human) = BMX (human) (UniProt P51813)
MAP4K2 (human) = MAP4K2 (human) (UniProt Q12851)
SNRK (human) = SNRK (human) (UniProt Q9NRH2)
ROS1 (human) = ROS1 (human) (UniProt P08922)
TTK (human) = TTK (human) (UniProt P33981)
TNNI3K (human) = TNNI3K (human) (UniProt Q59H18)
MAPK9 (human) = MAPK9 (human) (UniProt P45984)
[4] = test system: EGFR (human), P00533 [L861Q]
FGFR2 (human) = FGFR2 (human) (UniProt P21802)
CSNK1G2 (human) = CSNK1G2 (human) (UniProt P78368)
MAP2K6 (human) = MAP2K6 (human) (UniProt P52564)
Chain of MAP2K6 (human) (P52564 whole entry, looked up): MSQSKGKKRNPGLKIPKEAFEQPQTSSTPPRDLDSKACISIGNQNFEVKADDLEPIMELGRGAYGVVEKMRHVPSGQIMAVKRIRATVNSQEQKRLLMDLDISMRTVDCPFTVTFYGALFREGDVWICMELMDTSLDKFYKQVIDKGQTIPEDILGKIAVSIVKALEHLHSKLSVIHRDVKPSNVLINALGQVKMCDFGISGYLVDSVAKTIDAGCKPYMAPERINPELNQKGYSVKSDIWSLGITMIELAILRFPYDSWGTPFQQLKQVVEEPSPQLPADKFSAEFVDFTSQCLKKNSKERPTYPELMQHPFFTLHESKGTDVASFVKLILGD

MUSK (human) = MUSK (human) (UniProt O15146)
Chain of MUSK (human) (O15146 whole entry, looked up): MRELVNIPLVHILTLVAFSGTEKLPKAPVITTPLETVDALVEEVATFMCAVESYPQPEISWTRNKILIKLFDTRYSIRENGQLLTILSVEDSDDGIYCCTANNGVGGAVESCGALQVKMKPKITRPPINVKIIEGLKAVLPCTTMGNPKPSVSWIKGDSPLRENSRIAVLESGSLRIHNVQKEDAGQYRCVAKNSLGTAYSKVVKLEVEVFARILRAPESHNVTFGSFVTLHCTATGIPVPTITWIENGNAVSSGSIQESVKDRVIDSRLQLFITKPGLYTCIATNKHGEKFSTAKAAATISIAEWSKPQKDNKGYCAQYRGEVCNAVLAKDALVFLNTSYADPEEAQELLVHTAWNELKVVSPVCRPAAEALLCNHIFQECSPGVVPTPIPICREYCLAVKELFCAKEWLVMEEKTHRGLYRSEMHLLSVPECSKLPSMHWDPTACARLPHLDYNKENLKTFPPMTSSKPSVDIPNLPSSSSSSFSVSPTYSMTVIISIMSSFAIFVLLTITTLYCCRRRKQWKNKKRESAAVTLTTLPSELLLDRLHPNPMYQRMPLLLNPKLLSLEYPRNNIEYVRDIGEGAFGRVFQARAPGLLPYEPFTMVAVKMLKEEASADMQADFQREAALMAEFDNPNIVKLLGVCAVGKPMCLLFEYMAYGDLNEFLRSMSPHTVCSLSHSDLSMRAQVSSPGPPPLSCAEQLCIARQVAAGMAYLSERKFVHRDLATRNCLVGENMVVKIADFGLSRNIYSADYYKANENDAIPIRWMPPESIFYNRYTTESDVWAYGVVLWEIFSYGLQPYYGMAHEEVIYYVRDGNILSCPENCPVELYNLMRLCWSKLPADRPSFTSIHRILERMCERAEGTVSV

TAOK3 (human) = TAOK3 (human) (UniProt Q9H2K8)
CLK2 (human) = CLK2 (human) (UniProt P49760)
RIOK1 (human) = RIOK1 (human) (UniProt Q9BRS2)
MAP4K3 (human) = MAP4K3 (human) (UniProt Q8IVH8)
STK17B (human) = STK17B (human) (UniProt O94768)
EPHA5 (human) = EPHA5 (human) (UniProt P54756)
WEE1 (human) = WEE1 (human) (UniProt P30291)
Chain of WEE1 (human) (P30291 whole entry, looked up): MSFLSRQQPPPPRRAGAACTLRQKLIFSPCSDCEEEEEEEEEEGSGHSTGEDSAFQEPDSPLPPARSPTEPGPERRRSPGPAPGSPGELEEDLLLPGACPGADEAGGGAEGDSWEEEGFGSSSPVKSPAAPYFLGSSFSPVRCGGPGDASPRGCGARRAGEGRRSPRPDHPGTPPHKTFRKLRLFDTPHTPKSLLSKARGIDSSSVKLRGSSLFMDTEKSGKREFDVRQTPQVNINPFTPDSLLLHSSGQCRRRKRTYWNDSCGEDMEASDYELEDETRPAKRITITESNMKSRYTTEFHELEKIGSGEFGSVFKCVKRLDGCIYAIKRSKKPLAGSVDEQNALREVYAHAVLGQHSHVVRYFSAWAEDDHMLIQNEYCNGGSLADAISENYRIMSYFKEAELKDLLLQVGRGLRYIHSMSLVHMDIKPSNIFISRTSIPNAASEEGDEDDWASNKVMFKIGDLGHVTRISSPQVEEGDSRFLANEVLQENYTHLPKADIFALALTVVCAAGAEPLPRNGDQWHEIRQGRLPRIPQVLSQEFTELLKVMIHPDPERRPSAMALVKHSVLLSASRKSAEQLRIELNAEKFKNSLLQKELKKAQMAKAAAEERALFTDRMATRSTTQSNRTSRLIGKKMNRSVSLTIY

[5] = test system: BRAF (human), P15056 [V600E]

Chain of KIT (human), P10721 [V559D] (P10721 whole entry V559D, looked up): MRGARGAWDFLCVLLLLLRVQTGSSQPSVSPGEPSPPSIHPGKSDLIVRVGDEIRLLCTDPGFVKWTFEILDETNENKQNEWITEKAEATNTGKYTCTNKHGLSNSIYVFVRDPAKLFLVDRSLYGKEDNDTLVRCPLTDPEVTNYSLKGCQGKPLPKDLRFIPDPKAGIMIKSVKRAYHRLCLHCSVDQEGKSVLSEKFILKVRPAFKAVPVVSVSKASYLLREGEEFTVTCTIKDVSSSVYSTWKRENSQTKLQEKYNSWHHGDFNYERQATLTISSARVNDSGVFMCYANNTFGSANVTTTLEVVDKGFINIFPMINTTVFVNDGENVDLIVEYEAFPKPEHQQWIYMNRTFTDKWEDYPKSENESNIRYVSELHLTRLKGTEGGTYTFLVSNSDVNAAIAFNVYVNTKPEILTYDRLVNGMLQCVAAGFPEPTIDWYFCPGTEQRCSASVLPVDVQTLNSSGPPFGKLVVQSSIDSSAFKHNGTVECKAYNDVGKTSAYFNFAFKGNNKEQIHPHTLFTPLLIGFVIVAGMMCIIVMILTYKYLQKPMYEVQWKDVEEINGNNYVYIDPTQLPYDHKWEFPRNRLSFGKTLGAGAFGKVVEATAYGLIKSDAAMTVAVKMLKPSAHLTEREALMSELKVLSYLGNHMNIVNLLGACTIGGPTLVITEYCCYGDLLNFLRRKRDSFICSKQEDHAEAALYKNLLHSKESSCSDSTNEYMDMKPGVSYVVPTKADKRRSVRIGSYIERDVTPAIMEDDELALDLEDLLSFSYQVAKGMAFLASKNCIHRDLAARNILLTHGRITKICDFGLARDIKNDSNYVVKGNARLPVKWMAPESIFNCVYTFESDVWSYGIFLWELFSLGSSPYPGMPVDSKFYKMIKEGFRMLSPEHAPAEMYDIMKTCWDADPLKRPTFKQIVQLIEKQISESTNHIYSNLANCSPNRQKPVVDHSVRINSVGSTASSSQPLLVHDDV
Chain of CDK16 (human) (Q00536 whole entry, looked up): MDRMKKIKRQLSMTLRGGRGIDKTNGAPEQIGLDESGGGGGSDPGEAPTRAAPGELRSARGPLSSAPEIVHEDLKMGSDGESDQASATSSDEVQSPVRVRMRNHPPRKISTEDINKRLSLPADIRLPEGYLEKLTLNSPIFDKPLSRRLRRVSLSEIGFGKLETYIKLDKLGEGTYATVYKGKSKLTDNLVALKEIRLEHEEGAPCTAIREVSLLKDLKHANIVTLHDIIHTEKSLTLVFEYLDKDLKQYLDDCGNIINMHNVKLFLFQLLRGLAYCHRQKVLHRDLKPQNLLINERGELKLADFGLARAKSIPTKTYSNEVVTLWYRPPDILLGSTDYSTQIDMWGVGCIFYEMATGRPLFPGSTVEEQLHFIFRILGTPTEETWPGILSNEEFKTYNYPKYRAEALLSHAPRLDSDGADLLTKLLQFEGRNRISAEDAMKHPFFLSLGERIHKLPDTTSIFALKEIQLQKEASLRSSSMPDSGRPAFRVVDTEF

SMILES: CN(C)C/C=C/C(=O)Nc1cccc(C(=O)Nc2ccc(Nc3nccc(/C(C#N)=C4\Nc5ccccc5S4)n3)cc2)c1
- kinase still bound, per cent of control (EPHA4 (human)): 100%
- kinase still bound, per cent of control (TIE1 (human)): 70%
- kinase still bound, per cent of control [1]: 11%
- kinase still bound, per cent of control (TNIK (human)): 100%
- kinase still bound, per cent of control (CDK16 (human)): 100%
- kinase still bound, per cent of control (MAP3K9 (human)): 100%
- kinase still bound, per cent of control (CaMK1 (human)): 100%
- kinase still bound, per cent of control (MST4 (human)): 100%
- kinase still bound, per cent of control (NEK1 (human)): 100%
- kinase still bound, per cent of control (MAPK12 (human)): 100%
- kinase still bound, per cent of control (PIK3C2B (human)): 96%
- kinase still bound, per cent of control (BMPR1A (human)): 100%
- kinase still bound, per cent of control [2]: 100%
- kinase still bound, per cent of control (EPHA3 (human)): 100%
- kinase still bound, per cent of control (NEK6 (human)): 100%
- kinase still bound, per cent of control (MAP3K1 (human)): 100%
- kinase still bound, per cent of control (TAOK1 (human)): 74%
- kinase still bound, per cent of control (CSNK1A1L (human)): 100%
- kinase still bound, per cent of control [3]: 37%
- kinase still bound, per cent of control (FLT4 (human)): 78%
- kinase still bound, per cent of control (CDK13 (human)): 100%
- kinase still bound, per cent of control (ERN1 (human)): 100%
- kinase still bound, per cent of control (PAK2 (human)): 100%
- kinase still bound, per cent of control (BMX (human)): 88%
- kinase still bound, per cent of control (MAP4K2 (human)): 100%
- kinase still bound, per cent of control (SNRK (human)): 100%
- kinase still bound, per cent of control (ROS1 (human)): 58%
- kinase still bound, per cent of control (TTK (human)): 100%
- kinase still bound, per cent of control (TNNI3K (human)): 100%
- kinase still bound, per cent of control (MAPK9 (human)): 0.05%
- kinase still bound, per cent of control [4]: 81%
- kinase still bound, per cent of control (FGFR2 (human)): 100%
- kinase still bound, per cent of control (CSNK1G2 (human)): 22%
- kinase still bound, per cent of control (MAP2K6 (human)): 100%
- kinase still bound, per cent of control (MUSK (human)): 70%
- kinase still bound, per cent of control (TAOK3 (human)): 100%
- kinase still bound, per cent of control (CLK2 (human)): 100%
- kinase still bound, per cent of control (RIOK1 (human)): 14%
- kinase still bound, per cent of control (MAP4K3 (human)): 91%
- kinase still bound, per cent of control (STK17B (human)): 100%
- kinase still bound, per cent of control (EPHA5 (human)): 100%
- kinase still bound, per cent of control (WEE1 (human)): 100%

SMILES: CN(C)C/C=C/C(=O)Nc1cccc(C(=O)Nc2ccc(Nc3nccc(-c4cccnc4)n3)cc2)c1
- kinase still bound, per cent of control (EPHA4 (human)): 94%
- kinase still bound, per cent of control (TIE1 (human)): 100%
- kinase still bound, per cent of control [1]: 1%
- kinase still bound, per cent of control (TNIK (human)): 40%
- kinase still bound, per cent of control (CDK16 (human)): 89%
- kinase still bound, per cent of control (MAP3K9 (human)): 80%
- kinase still bound, per cent of control (CaMK1 (human)): 100%
- kinase still bound, per cent of control (MST4 (human)): 34%
- kinase still bound, per cent of control (NEK1 (human)): 77%
- kinase still bound, per cent of control (MAPK12 (human)): 78%
- kinase still bound, per cent of control (PIK3C2B (human)): 100%
- kinase still bound, per cent of control (BMPR1A (human)): 46%
- kinase still bound, per cent of control [2]: 100%
- kinase still bound, per cent of control (EPHA3 (human)): 80%
- kinase still bound, per cent of control (NEK6 (human)): 17%
- kinase still bound, per cent of control (MAP3K1 (human)): 85%
- kinase still bound, per cent of control [5]: 60%
- kinase still bound, per cent of control (TAOK1 (human)): 13%
- kinase still bound, per cent of control (CSNK1A1L (human)): 37%
- kinase still bound, per cent of control [3]: 48%
- kinase still bound, per cent of control (FLT4 (human)): 95%
- kinase still bound, per cent of control (CDK13 (human)): 43%
- kinase still bound, per cent of control (ERN1 (human)): 78%
- kinase still bound, per cent of control (PAK2 (human)): 87%
- kinase still bound, per cent of control (BMX (human)): 70%
- kinase still bound, per cent of control (MAP4K2 (human)): 9.9%
- kinase still bound, per cent of control (SNRK (human)): 90%
- kinase still bound, per cent of control (ROS1 (human)): 100%
- kinase still bound, per cent of control (TTK (human)): 97%
- kinase still bound, per cent of control (TNNI3K (human)): 77%
- kinase still bound, per cent of control (MAPK9 (human)): 0%
- kinase still bound, per cent of control [4]: 84%
- kinase still bound, per cent of control (FGFR2 (human)): 67%
- kinase still bound, per cent of control (CSNK1G2 (human)): 12%
- kinase still bound, per cent of control (MAP2K6 (human)): 53%
- kinase still bound, per cent of control (MUSK (human)): 94%
- kinase still bound, per cent of control (TAOK3 (human)): 94%
- kinase still bound, per cent of control (CLK2 (human)): 18%
- kinase still bound, per cent of control (RIOK1 (human)): 15%
- kinase still bound, per cent of control (MAP4K3 (human)): 38%
- kinase still bound, per cent of control (STK17B (human)): 24%
- kinase still bound, per cent of control (EPHA5 (human)): 96%
- kinase still bound, per cent of control (WEE1 (human)): 84%
